Experimental data as given in patent US8226965B2, “Methods of treating fungal, yeast and mold infections” (priority 2008, dated 2012).

How the values were obtained:
[1] = test system: T. rubrum mycelia and microconidia; test: Time-kill experiments; type: cell-based, Trichophyton rubrum; conditions: for reduction in colony counts: 16×MIC, up to 24 hours, hyphae or microconidia in water (nongrowth)
Procedure: Time-kill experiments. […] Part of the conidial suspension was pelleted and resuspended in RPMI 1640 medium and grown for 16-18 hours overnight at room temperature to allow germination of microconidia. After germination, the hyphae were collected by centrifugation and resuspended in distilled water. […] Colony-forming units were counted after four days of incubation at 35° C.

[2] = test system: Trichophyton rubrum, Trichophyton mentagrophytes and Epidermophyton floccosum; test: Spontaneous resistance development, overall; type: cell-based
Procedure: Phenotypically resistant isolates were tested for MICs and compared to parental MICs.

[3] = cited from earlier work

SMILES: Cc1cc(C2CCCCC2)n(O)c(=O)c1 [Ciclopirox]
- reduction in colony counts [1]: None of the other compounds significantly reduced colony counts
- activity on nongrowing mycelia and conidia ([1]; FIG. 10): no activity against the conidial form
- stable resistance of recovered isolates [2]: none of the isolates were stably resistant

SMILES: CN(C/C=C/C#CC(C)(C)C)Cc1cccc2ccccc12.Cl [Terbinafine hydrochloride]
- solubility in dichloromethane [3]: freely soluble
- solubility in methanol [3]: freely soluble

SMILES: CN(C/C=C/C#CC(C)(C)C)Cc1cccc2ccccc12 [Terbinafine]
- reduction in colony counts [1]: None of the other compounds significantly reduced colony counts
- stable resistance of recovered isolates [2]: none of the isolates were stably resistant
